From patent US10844044B2 (Vanderbilt University, priority 2018, dated 2020)

What follows are compounds tested against WDR5 (Homo sapiens (Human), UniProt P61964) (assay: TR-FRET binding assay (displacement of 10mer-Thr-FAM probe from WDR5)). Conditions: not given.

`COc1cc(CNC(=O)c2cc(Cn3ccn(-c4ccccc4)c3=N)cc(-c3ccc(F)cc3C)c2)cc(OC)c1` [Example 133, N-(3,5-Dimethoxybenzyl)-4′-fluoro-5-((2-imino-3-phenyl-2,3-dihydro-1H-imidazol-1-yl)methyl)-2′-methyl-[1,1′-biphenyl]-3-carboxamide] and `Cn1ccn(Cc2cc(C(=O)N[C@H]3CCc4cc(F)ccc43)cc(-c3cccnc3C(F)(F)F)c2)c1=N` [Example 129, (S)—N-(5-Fluoro-2,3-dihydro-1H-inden-1-yl)-3-((2-imino-3-methyl-2,3-dihydro-1H-imidazol-1-yl)methyl)-5-(2-(trifluoromethyl)pyridin-3-yl)benzamide] cannot be ordered by Ki: > 33 nM for the first, > 33 nM for the second.

Same assay, conditions: read-out: Ki for Inhibition of WDR5 by TR-FRET assay

Going from `CCn1cc(-c2cc(CN3CCSC3=N)cc(C(=O)NCc3ccc(=O)n(C)c3)c2)c(C(F)(F)F)n1` [Example 323, 3-(1-Ethyl-3-(trifluoromethyl)-1H-pyrazol-4-yl)-5-((2-iminothiazolidin-3-yl)methyl)-N-((1-methyl-6-oxo-1,6-dihydropyridin-3-yl)methyl)benzamide] to `Cc1cc([C@@H](NC(=O)c2cc(CN3CCSC3=N)cc(-c3ccc(F)cc3C#N)c2)C2CC2)ccc1F` [Example 316], the Ki falls from 1.8 nM to 0.91 nM (2-fold).

Going from `C[C@H](NC(=O)c1cc(Cn2ccoc2=N)cc(-c2cccnc2C(F)(F)F)c1)c1ccc(C(F)(F)F)cc1` [Example 258] to `C[C@H](NC(=O)c1cc(Cn2ccoc2=N)cc(-c2cccnc2C(F)(F)F)c1)c1ccc(F)c(Cl)c1` [Example 257, (S)—N-(1-(3-Chloro-4-fluorophenyl)ethyl)-3-((2-iminooxazol-3(2H)-yl)methyl)-5-(2-(trifluoromethyl)pyridin-3-yl)benzamide], the Ki falls from 5.8 nM to 2 nM (2.9-fold). The second binds more tightly here.

Same assay, conditions: read-out: Ki for Inhibition of WDR5 by TR-FRET assay; TR-FRET, 10mer-Thr-FAM probe, WDR5-His tag 2 nM, pH 7.0

`COc1cc(OC)cc(C(NC(=O)c2cc(Cn3ccn(C)c3=N)cc(-c3ncnc4c3CCCC4)c2)C2CC2)c1` (stereo not drawn) [Example 96, N-(Cyclopropyl(3,5-dimethoxyphenyl)methyl)-3-((2-imino-3-methyl-2,3-dihydro-1H-imidazol-1-yl)methyl)-5-(5,6,7,8-tetrahydroquinazolin-4-yl)benzamide] and `Cc1cc([C@@H](NC(=O)c2cc(Cn3ccn(C)c3=N)cc(-c3ncnc4c3CCCC4)c2)C2CC2)ccc1F` [Example 94, (S)—N-(Cyclopropyl(4-fluoro-3-methylphenyl)methyl)-3-((2-imino-3-methyl-2,3-dihydro-1H-imidazol-1-yl)methyl)-5-(5,6,7,8-tetrahydroquinazolin-4-yl)benzamide] are within 1.5-fold of each other in Ki: 27 nM for the first, 36 nM for the second.

Compared with `Cc1cc(F)ccc1-c1cc(Cn2ccn(C)c2=N)cc(C(=O)N[C@H](C)c2ccc(F)c(C(F)(F)F)c2)n1` [Example 360, (R)-6-(4-fluoro-2-methylphenyl)-N-(1-(4-fluoro-3-(trifluoromethyl)phenyl)ethyl)-4-((2-imino-3-methyl-2,3-dihydro-1H-imidazol-1-yl)methyl)picolinamide], `Cc1ccnc(C(NC(=O)c2cc(Cn3ccn(C)c3=N)cc(-c3ccc(F)cc3C(F)(F)F)n2)C2CC2)c1` (stereo not drawn) [Example 101, N-(Cyclopropyl(4-methylpyridin-2-yl)methyl)-6-(4-fluoro-2-(trifluoromethyl)phenyl)-4-((2-imino-3-methyl-2,3-dihydro-1H-imidazol-1-yl)methyl)picolinamide] is 2.2-fold lower in Ki: 1 nM for the first, 0.45 nM for the second. The second binds more tightly here.

Compared with `Cc1cc([C@@H](NC(=O)c2cc(Cn3ccn(C)c3=N)cc(N3CCC[C@@H]3C(F)(F)F)c2)C2CC2)ccc1F` [Example 222, N—((S)-Cyclopropyl(4-fluoro-3-methylphenyl)methyl)-3-((2-imino-3-methyl-2,3-dihydro-1H-imidazol-1-yl)methyl)-5-((R)-2-(trifluoromethyl)pyrrolidin-1-yl)benzamide], `Cc1cc([C@@H](NC(=O)c2cc(Cn3ccoc3=N)cc(C3CC3)c2)C2CC2)ccc1F` [Example 265, (S)-3-cyclopropyl-N-(cyclopropyl(4-fluoro-3-methylphenyl)methyl)-5-((2-iminooxazol-3(2H)-yl)methyl)benzamide] is 2.4-fold higher in Ki: 0.33 nM for the first, 0.78 nM for the second.

Going from `Cc1cc(CNC(=O)c2cc(Cn3ccn(C)c3=N)cc(-c3c[nH]c(=O)cc3C)c2)ccc1Cl` [Example 83, N-(4-Chloro-3-methylbenzyl)-3-((2-imino-3-methyl-2,3-dihydro-1H-imidazol-1-yl)methyl)-5-(4-methyl-6-oxo-1,6-dihydropyridin-3-yl)benzamide] to `Cc1cc(=O)[nH]cc1-c1cc(Cn2ccn(C)c2=N)cc(C(=O)NCc2ccc(Cl)c(Cl)c2)c1` [Example 82, N-(3,4-dichlorobenzyl)-3-((2-imino-3-methyl-2,3-dihydro-1H-imidazol-1-yl)methyl)-5-(4-methyl-6-oxo-1,6-dihydropyridin-3-yl)benzamide], the Ki rises from 7.1 nM to 20 nM (2.8-fold). The first binds more tightly here.

Going from `COc1cc(CNC(=O)c2cc(Cn3ccn(C)c3=N)cc(-c3cccnc3C)c2)ccn1` [Example 41, 3-((2-Imino-3-methyl-2,3-dihydro-1H-imidazol-1-yl)methyl)-N-((2-methoxypyridin-4-yl)methyl)-5-(2-methylpyridin-3-yl)benzamide] to `Cc1cc(-c2cc(Cn3ccn(C)c3=N)cc(C(=O)NCc3ccc(Cl)c(C)c3)c2)ccn1` [Example 18, N-(4-Chloro-3-methylbenzyl)-3-((2-imino-3-methyl-2,3-dihydro-1H-imidazol-1-yl)methyl)-5-(2-methylpyridin-4-yl)benzamide], the Ki falls from 33 nM to 3.5 nM (9.4-fold).

Going from `COc1ncc(C)cc1-c1cc(Cn2ccn(C)c2=N)cc(C(=O)NC(c2cc(C)ccn2)C2CC2)c1` (stereo not drawn) [Example 2, N-(Cyclopropyl(4-methylpyridin-2-yl)methyl)-3-((2-imino-3-methyl-2,3-dihydro-1-imidazol-1-yl)methyl)-5-(2-methoxy-5-methylpyridin-3-yl)benzamide] to `Cn1ccn(Cc2cc(C(=O)N[C@H](c3ccc(Cl)c(Cl)c3)C3CC3)cc(-c3cccnc3C(F)(F)F)c2)c1=N` [Example 153, (S)—N-(Cyclopropyl(3,4-dichlorophenyl)methyl)-3-((2-imino-3-methyl-2,3-dihydro-1H-imidazol-1-yl)methyl)-5-(2-(trifluoromethyl)pyridin-3-yl)benzamide], the Ki rises from < 0.1 nM to 0.33 nM. The first binds more tightly here.

Going from `COc1ccnc(CNC(=O)c2cc(Cn3ccn(C)c3=N)cc(-c3ccc(F)cc3C)n2)c1` [Example 357, 6-(4-Fluoro-2-methylphenyl)-4-((2-imino-3-methyl-2,3-dihydro-1H-imidazol-1-yl)methyl)-N-((4-methoxypyridin-2-yl)methyl)picolinamide] to `Cc1cc(F)ccc1-c1cc(Cn2ccoc2=N)cc(C(=O)NCc2ccc(Cl)c(Cl)c2)n1` [Example 277, N-(3,4-Dichlorobenzyl)-6-(4-fluoro-2-methylphenyl)-4-((2-iminooxazol-3(2H)-yl)methyl)picolinamide], the Ki rises from 1.3 nM to > 33 nM.

Going from `CCc1coc(=N)n1Cc1cc(C(=O)N[C@H](c2ccc(F)c(C)c2)C2CC2)cc(-c2cccnc2C(F)(F)F)c1` [Example 256, (S)—N-(Cyclopropyl(4-fluoro-3-methylphenyl)methyl)-3-((4-ethyl-2-iminooxazol-3(2H)-yl)methyl)-5-(2-(trifluoromethyl)pyridin-3-yl)benzamide] to `Cc1cc([C@@H](NC(=O)c2cc(CN3CCCOC3=N)cc(-c3cccnc3C(F)(F)F)c2)C2CC2)ccc1F` [Example 266, (S)—N-(Cyclopropyl(4-fluoro-3-methylphenyl)methyl)-3-((2-imino-1,3-oxazinan-3-yl)methyl)-5-(2-(trifluoromethyl)pyridin-3-yl)benzamide], the Ki rises from 2.7 nM to 16 nM (5.9-fold).

Going from `C[C@H](NC(=O)c1cc(Cn2ccoc2=N)cc(-c2cccnc2C(F)(F)F)c1)c1ncc(F)cn1` [Example 262, (S)—N-(1-(5-Fluoropyrimidin-2-yl)ethyl)-3-((2-iminooxazol-3(2H)-yl)methyl)-5-(2-(trifluoromethyl)pyridin-3-yl)benzamide] to `N=c1occn1Cc1cc(C(=O)N[C@H](c2ccc(Cl)c(Cl)c2)C2CC2)cc(-c2cccnc2C(F)(F)F)c1` [Example 271, (S)—N-(Cyclopropyl(3,4-dichlorophenyl)methyl)-3-((2-iminooxazol-3(2H)-yl)methyl)-5-(2-(trifluoromethyl)pyridin-3-yl)benzamide], the Ki falls from > 33 nM to 0.72 nM. The second binds more tightly here.

First: C[C@H](NC(=O)c1cc(Cn2ccn(C)c2=N)cc(-c2cccnc2C(F)(F)F)c1)c1ccc(C(F)(F)F)cc1 [Example 126, (S)-3-((2-Imino-3-methyl-2,3-dihydro-1H-imidazol-1-yl)methyl)-N-(1-(4-(trifluoromethyl)phenyl)ethyl)-5-(2-(trifluoromethyl)pyridin-3-yl)benzamide]
Second: Cc1cc([C@@H](NC(=O)c2cc(Cn3ccoc3=N)cc(-c3cncnc3C(F)(F)F)c2)C2CC2)ccc1F [Example 255, (S)—N-(Cyclopropyl(4-fluoro-3-methylphenyl)methyl)-3-((2-iminooxazol-3(2H)-yl)methyl)-5-(4-(trifluoromethyl)pyrimidin-5-yl)benzamide]
The Ki of the first is 4-fold higher: 2.5 nM for the first, 0.62 nM for the second. The second binds more tightly here.

Going from `COc1cc(CN(C)C(=O)c2cc(Cn3ccn(C)c3=N)cc(-c3ccnc(C)c3)c2)cc(OC)c1` [Example 48, N-(3,5-dimethoxybenzyl)-3-((2-imino-3-methyl-2,3-dihydro-1H-imidazol-1-yl)methyl)-N-methyl-5-(2-methylpyridin-4-yl)benzamide] to `COc1cc(CNC(=O)c2cc(Cn3ccn(C)c3=N)cc(-c3cnc(F)cc3C)c2)cc(OC)c1` [Example 78, N-(3,5-Dimethoxybenzyl)-3-(6-fluoro-4-methylpyridin-3-yl)-5-((2-imino-3-methyl-2,3-dihydro-1H-imidazol-1-yl)methyl)benzamide], the Ki falls from 26 nM to 5.9 nM (4.4-fold). The second binds more tightly here.

Compared with `COc1cc(CNC(=O)c2cc(Cn3ccn(CC4CC4)c3=N)cc(-c3ccc(F)cc3C)c2)cc(OC)c1` [Example 134, 5-((3-(Cyclopropylmethyl)-2-imino-2,3-dihydro-1H-imidazol-1-yl)methyl)-N-(3,5-dimethoxybenzyl)-4′-fluoro-2′-methyl-[1,1′-biphenyl]-3-carboxamide], `COc1cc(CNC(=O)c2cc(Cn3ccn(C)c3=N)cc(-c3c[nH]c(=O)cc3C)c2)cc(OC)c1` [Example 81, N-(3,5-Dimethoxybenzyl)-3-((2-imino-3-methyl-2,3-dihydro-1H-imidazol-1-yl)methyl)-5-(4-methyl-6-oxo-1,6-dihydropyridin-3-yl)benzamide] is 2.9-fold lower in Ki: 38 nM for the first, 13 nM for the second. The second binds more tightly here.
